Experimental data from ChEMBL document CHEMBL5104090, “Recent advances in the medicinal chemistry of carbonic anhydrase inhibitors” (Eur J Med Chem, 2021).
pIC50, pKi: −log10 of the molar value.

How the values were obtained:
Carbonic anhydrase 7 = Carbonic anhydrase 7 (Homo sapiens, UniProt P43166)
Carbonic anhydrase 1 [1] = target: T1, Carbonic anhydrase 1 (Homo sapiens, UniProt P00915)
Carbonic anhydrase 2 [2] = target: T2, Carbonic anhydrase 2 (Homo sapiens, UniProt P00918)
Carbonic anhydrase 9 [3] = target: T3, Carbonic anhydrase 9 (Homo sapiens, UniProt Q16790)
Carbonic anhydrase 12 [4] = target: T4, Carbonic anhydrase 12 (Homo sapiens, UniProt O43570)
Carbonic anhydrase 9 [5] = target: T3, Carbonic anhydrase 9; remark: listed apart in the source
Carbonic anhydrase 12 [6] = target: T4, Carbonic anhydrase 12; remark: listed apart in the source
Carbonic anhydrase 1 [7] = target: T1, Carbonic anhydrase 1; remark: listed apart in the source
Carbonic anhydrase 2 [8] = target: T2, Carbonic anhydrase 2; remark: listed apart in the source
Carbonic anhydrase 4 [9] = target: T5, Carbonic anhydrase 4 (Homo sapiens, UniProt P22748)
Carbonic anhydrase 9 [10] = target: T3, Carbonic anhydrase 9; remark: listed apart in the source
Carbonic anhydrase 1 [11] = target: T1, Carbonic anhydrase 1; remark: listed apart in the source
Carbonic anhydrase 2 [12] = target: T2, Carbonic anhydrase 2; remark: listed apart in the source
Carbonic anhydrase 4 [13] = target: T5, Carbonic anhydrase 4; remark: listed apart in the source

T1 sequence (P00915 whole entry): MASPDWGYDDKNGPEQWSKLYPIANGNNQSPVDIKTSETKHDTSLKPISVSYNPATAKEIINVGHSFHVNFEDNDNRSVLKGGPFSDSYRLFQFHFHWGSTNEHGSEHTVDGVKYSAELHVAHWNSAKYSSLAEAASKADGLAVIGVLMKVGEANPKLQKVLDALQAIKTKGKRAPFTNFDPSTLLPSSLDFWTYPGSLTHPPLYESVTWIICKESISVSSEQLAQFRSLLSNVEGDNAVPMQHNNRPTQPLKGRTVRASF
T4 sequence (O43570 whole entry): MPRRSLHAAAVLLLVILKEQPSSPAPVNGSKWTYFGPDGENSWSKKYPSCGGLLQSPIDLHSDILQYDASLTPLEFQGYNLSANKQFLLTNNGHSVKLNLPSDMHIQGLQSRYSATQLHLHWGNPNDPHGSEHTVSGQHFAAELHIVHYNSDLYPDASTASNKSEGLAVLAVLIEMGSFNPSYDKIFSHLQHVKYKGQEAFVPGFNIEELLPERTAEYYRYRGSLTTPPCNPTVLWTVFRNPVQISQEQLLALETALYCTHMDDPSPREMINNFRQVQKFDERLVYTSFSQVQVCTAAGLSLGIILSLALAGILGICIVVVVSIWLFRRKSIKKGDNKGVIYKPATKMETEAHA
T5 sequence (P22748 whole entry): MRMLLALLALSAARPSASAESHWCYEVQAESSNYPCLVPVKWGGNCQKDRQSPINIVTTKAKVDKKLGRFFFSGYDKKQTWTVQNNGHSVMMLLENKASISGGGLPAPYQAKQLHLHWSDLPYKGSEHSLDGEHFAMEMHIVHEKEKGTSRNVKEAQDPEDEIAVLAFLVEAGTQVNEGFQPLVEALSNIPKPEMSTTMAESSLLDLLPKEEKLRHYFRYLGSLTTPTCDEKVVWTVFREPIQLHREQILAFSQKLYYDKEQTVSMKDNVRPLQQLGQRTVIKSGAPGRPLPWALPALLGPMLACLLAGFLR
Chain of Carbonic anhydrase 7 (P43166 whole entry): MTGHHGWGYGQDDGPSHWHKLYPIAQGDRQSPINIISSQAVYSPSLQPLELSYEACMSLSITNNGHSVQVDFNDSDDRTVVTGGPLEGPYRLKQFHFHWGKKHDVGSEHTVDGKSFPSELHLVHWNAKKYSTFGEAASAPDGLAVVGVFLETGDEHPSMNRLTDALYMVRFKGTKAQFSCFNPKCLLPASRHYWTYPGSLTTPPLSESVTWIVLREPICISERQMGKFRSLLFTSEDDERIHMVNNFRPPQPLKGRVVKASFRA

COc1ccccc1[SeH]
pKi (Carbonic anhydrase 7): 6.12

Cn1c(-c2ccccc2)nc2cc(C(N)=O)ccc21
pIC50 (Carbonic anhydrase 1 [1]): < 6.44
pIC50 (Carbonic anhydrase 2 [2]): < 6.44
pIC50 (Carbonic anhydrase 9 [3]): < 6.44
pIC50 (Carbonic anhydrase 12 [4]): < 6.44

CCN(CC)c1ccc(/C=N/NC(=O)c2ccc(S(N)(=O)=O)cc2)c(O)c1
pKi (Carbonic anhydrase 9 [5]): 7.80
pKi (Carbonic anhydrase 12 [6]): 8.07

NS(=O)(=O)c1ccc2[nH]c(-c3ccccc3)nc2c1
pIC50 (Carbonic anhydrase 1 [1]): < 6.44
pIC50 (Carbonic anhydrase 2 [2]): < 6.44
pIC50 (Carbonic anhydrase 9 [3]): < 6.44
pIC50 (Carbonic anhydrase 12 [4]): < 6.44

Cc1ccc(CSc2nc3ccccc3c(=O)n2CCc2ccc(S(N)(=O)=O)cc2)cc1
pKi (Carbonic anhydrase 9 [5]): 7.71
pKi (Carbonic anhydrase 12 [6]): 7.76

NS(=O)(=O)c1ccc2[nH]c(-c3ccccn3)nc2c1
pIC50 (Carbonic anhydrase 1 [1]): < 6.44
pIC50 (Carbonic anhydrase 2 [2]): < 6.44
pIC50 (Carbonic anhydrase 9 [3]): < 6.44
pIC50 (Carbonic anhydrase 12 [4]): < 6.44

NS(=O)(=O)c1ccc(CCn2c(SCc3ccc(Cl)cc3)nc3ccccc3c2=O)cc1
pKi (Carbonic anhydrase 9 [5]): 7.71
pKi (Carbonic anhydrase 12 [6]): 7.76

Cn1c(-c2ccc(Cl)cc2)nc2cc(C(=O)O)ccc21
pIC50 (Carbonic anhydrase 1 [1]): < 6.44
pIC50 (Carbonic anhydrase 2 [2]): < 6.44
pIC50 (Carbonic anhydrase 9 [3]): < 6.44
pIC50 (Carbonic anhydrase 12 [4]): < 6.44

Cn1c(-c2ccc(Cl)cc2)nc2cc(C(N)=O)ccc21
pIC50 (Carbonic anhydrase 1 [1]): < 6.44
pIC50 (Carbonic anhydrase 2 [2]): < 6.44
pIC50 (Carbonic anhydrase 9 [3]): < 6.44
pIC50 (Carbonic anhydrase 12 [4]): < 6.44

COC(=O)c1ccc2c(c1)C(=O)N(CCc1ccc(S(N)(=O)=O)cc1)C2=O
pKi (Carbonic anhydrase 1 [7]): 7.27
pKi (Carbonic anhydrase 2 [8]): 7.59
pKi (Carbonic anhydrase 4 [9]): 6.50
pKi (Carbonic anhydrase 9 [10]): 7.27

COc1ccc(C2CC(c3cccs3)=NN2c2ccc(S(N)(=O)=O)cc2)cc1OC (stereo unspecified)
pKi (Carbonic anhydrase 1 [11]): 7.62
pKi (Carbonic anhydrase 2 [12]): 7.43

CCOC(=O)c1ccc(N2C(=O)c3ccc(C(=O)O)cc3C2=O)cc1
pKi (Carbonic anhydrase 1 [7]): < 5.00
pKi (Carbonic anhydrase 2 [8]): < 5.00
pKi (Carbonic anhydrase 4 [9]): < 5.00
pKi (Carbonic anhydrase 9 [10]): < 5.00

COc1ccc(C(=O)/C=C/Nc2cccc(S(N)(=O)=O)c2)cc1
pKi (Carbonic anhydrase 4 [13]): 8.19

[SeH]c1ccc2ccccc2c1
pKi (Carbonic anhydrase 9 [5]): 6.34
pKi (Carbonic anhydrase 7): 6.12

Cc1ccccc1[SeH]
pKi (Carbonic anhydrase 7): 6.12

NS(=O)(=O)c1cccc(N/C=C/C(=O)c2ccc(Cl)cc2)c1
pKi (Carbonic anhydrase 4 [13]): 8.19

CCOC(=O)c1ccc(N2C(=O)c3ccc(C(=O)OC)cc3C2=O)cc1
pKi (Carbonic anhydrase 1 [7]): < 5.00
pKi (Carbonic anhydrase 2 [8]): < 5.00
pKi (Carbonic anhydrase 4 [9]): < 5.00
pKi (Carbonic anhydrase 9 [10]): < 5.00

NS(=O)(=O)c1ccc(N/C=C/C(=O)c2ccco2)cc1
pKi (Carbonic anhydrase 9 [5]): 9.68
pKi (Carbonic anhydrase 4 [13]): 8.19

COc1ccc(C2CC(c3cccs3)=NN2c2ccc(S(N)(=O)=O)cc2)cc1 (stereo unspecified)
pKi (Carbonic anhydrase 1 [11]): 7.62
pKi (Carbonic anhydrase 2 [12]): 7.43

Fc1ccc([SeH])cc1
pKi (Carbonic anhydrase 9 [5]): 6.74
pKi (Carbonic anhydrase 7): 6.12

NS(=O)(=O)c1ccc(CCn2c(SCc3ccc([N+](=O)[O-])cc3)nc3ccccc3c2=O)cc1
pKi (Carbonic anhydrase 12 [6]): 7.76

NS(=O)(=O)c1ccc2[nH]c(-c3ccc(Cl)cc3)nc2c1
pIC50 (Carbonic anhydrase 1 [1]): < 6.44
pIC50 (Carbonic anhydrase 2 [2]): < 6.44
pIC50 (Carbonic anhydrase 9 [3]): < 6.44
pIC50 (Carbonic anhydrase 12 [4]): < 6.44

NS(=O)(=O)c1ccc(N/C=C/C(=O)c2ccc(Cl)cc2)cc1
pKi (Carbonic anhydrase 9 [5]): 9.68
pKi (Carbonic anhydrase 4 [13]): 8.19

NS(=O)(=O)c1ccc(N2N=C(c3cccs3)CC2c2ccc(Cl)cc2)cc1 (stereo unspecified)
pKi (Carbonic anhydrase 1 [11]): 7.62
pKi (Carbonic anhydrase 2 [12]): 7.43

O=C(O)c1ccc2c(c1)C(=O)N(Cc1ccccc1)C2=O
pKi (Carbonic anhydrase 1 [7]): < 5.00
pKi (Carbonic anhydrase 2 [8]): < 5.00
pKi (Carbonic anhydrase 4 [9]): < 5.00
pKi (Carbonic anhydrase 9 [10]): < 5.00

NS(=O)(=O)c1cccc(N/C=C/C(=O)c2ccccc2)c1
pKi (Carbonic anhydrase 4 [13]): 8.19

CCSc1nc2ccccc2c(=O)n1CCc1ccc(S(N)(=O)=O)cc1
pKi (Carbonic anhydrase 9 [5]): 7.24
pKi (Carbonic anhydrase 12 [6]): 7.24

COC(=O)c1ccc2c(c1)C(=O)N(c1ccccc1)C2=O
pKi (Carbonic anhydrase 1 [7]): < 5.00
pKi (Carbonic anhydrase 2 [8]): < 5.00
pKi (Carbonic anhydrase 4 [9]): < 5.00
pKi (Carbonic anhydrase 9 [10]): < 5.00

[SeH]c1ccccc1
pKi (Carbonic anhydrase 9 [5]): 6.74
pKi (Carbonic anhydrase 7): 6.12

NS(=O)(=O)c1ccc(N/C=C/C(=O)c2cccs2)cc1
pKi (Carbonic anhydrase 9 [5]): 9.68
pKi (Carbonic anhydrase 4 [13]): 8.19

NS(=O)(=O)c1ccc(N2N=C(c3cccs3)CC2c2ccc(C(F)(F)F)cc2)cc1 (stereo unspecified)
pKi (Carbonic anhydrase 1 [11]): 7.62
pKi (Carbonic anhydrase 2 [12]): 7.43

N#Cc1ccc(CSc2nc3ccccc3c(=O)n2CCc2ccc(S(N)(=O)=O)cc2)cc1
pKi (Carbonic anhydrase 9 [5]): 7.71
pKi (Carbonic anhydrase 12 [6]): 7.76

NS(=O)(=O)c1ccc(C(=O)N/N=C/c2ccc(O)cc2)cc1
pKi (Carbonic anhydrase 9 [5]): 8.07
pKi (Carbonic anhydrase 12 [6]): 8.07

Cn1c(-c2ccc(B(O)O)cc2)nc2ccccc21
pIC50 (Carbonic anhydrase 1 [1]): < 6.44
pIC50 (Carbonic anhydrase 2 [2]): < 6.44
pIC50 (Carbonic anhydrase 9 [3]): < 6.44
pIC50 (Carbonic anhydrase 12 [4]): < 6.44

Cn1c(-c2ccccn2)nc2cc(S(N)(=O)=O)ccc21
pIC50 (Carbonic anhydrase 1 [1]): < 6.44
pIC50 (Carbonic anhydrase 2 [2]): < 6.44
pIC50 (Carbonic anhydrase 9 [3]): 8.18
pIC50 (Carbonic anhydrase 12 [4]): 8.00

NS(=O)(=O)c1ccc(CN2C(=O)c3ccc(C(=O)O)cc3C2=O)cc1
pKi (Carbonic anhydrase 1 [7]): 7.27
pKi (Carbonic anhydrase 2 [8]): 7.59
pKi (Carbonic anhydrase 4 [9]): 6.50
pKi (Carbonic anhydrase 9 [10]): 7.27

COc1cc(/C=N/NC(=O)c2ccc(S(N)(=O)=O)cc2)ccc1O
pKi (Carbonic anhydrase 9 [5]): 8.07
pKi (Carbonic anhydrase 12 [6]): 8.01
